Measured values published in PubChem BioAssay (NCI).
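Growth conditions: 96-well plates. Treatment: test compound, 48 hours, 5 concentrations. Analysis: linear interpolation between bracketing concentrations; unreached endpoints set to highest concentration. Abbreviation: GI50, concentration required for 50% inhibition of growth. TGI: concentration producing complete growth inhibition.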

Columns and labels:
Assay in all cases: inhibition of tumour cell growth, NCI panel, 48 h
OVCAR-4 ovarian = tested on: OVCAR-4 ovarian
BT-549 breast = tested on: BT-549 breast
IGROV1 ovarian = tested on: IGROV1 ovarian
SK-OV-3 ovarian = tested on: SK-OV-3 ovarian
A549 NSCLC = tested on: A549 NSCLC
UACC-62 melanoma = tested on: UACC-62 melanoma
RXF 393 renal = tested on: RXF 393 renal
PC-3 prostate = tested on: PC-3 prostate
OVCAR-3 ovarian = tested on: OVCAR-3 ovarian
COLO 205 colon = tested on: COLO 205 colon

Row | Compound | GI50 (OVCAR-4 ovarian) [µM] | TGI (OVCAR-4 ovarian) [µM] | GI50 (BT-549 breast) [µM] | TGI (BT-549 breast) [µM] | GI50 (IGROV1 ovarian) [µM] | TGI (IGROV1 ovarian) [µM] | GI50 (SK-OV-3 ovarian) [µM] | TGI (SK-OV-3 ovarian) [µM] | GI50 (A549 NSCLC) [µM] | TGI (A549 NSCLC) [µM] | GI50 (UACC-62 melanoma) [µM] | TGI (UACC-62 melanoma) [µM] | GI50 (RXF 393 renal) [µM] | TGI (RXF 393 renal) [µM] | GI50 (PC-3 prostate) [µM] | TGI (PC-3 prostate) [µM] | GI50 (OVCAR-3 ovarian) [µM] | TGI (OVCAR-3 ovarian) [µM] | GI50 (COLO 205 colon) [µM] | TGI (COLO 205 colon) [µM]
1 | Cn1nccc1Nc1nccc(-c2cc3c(s2)C(C)(C)N(CCN2CCOCC2)C3=O)n1 | 24 | > 100 | 19 | 99.8 | 2.15 | > 100 | 17 | > 86.2 | 5.27 | > 100 | 0.274 | > 100 | 4.73 | > 85.3 | 28.8 | > 100 | 27.2 | > 100 | 0.159 | > 100
2 | O=C(CN1CCN(c2ncnc3ccccc23)CC1)Nc1ccc(Cl)cc1C(=O)c1ccccc1Cl | 1.32 | 9.36 | 0.239 | 0.618 | 1.7 | 14.4 | 3.5 | 36.6 | 2.66 | > 100 | 0.579 | 1.5 | 0.61 | 1.31 | 0.818 | > 56.3 | 0.273 | 0.824 | 0.349 | 1.33
3 | COc1cc(O)c2c(O)c3c(c4c2c1[C@]1(C4)C(C)=CCCC1(C)C)[C@H](O)[C@@]1(O)CC(=O)C(C(N)=O)=C(O)[C@@]1(O)C3=O |  | 1.39 |  | 1.54 |  | 1.94 |  | 1.43 |  | 1.38 |  | 1.95 |  | 2.13 |  | 0.834 |  | 1.38 |  | 0.24
4 | O=C(Nc1ccccc1O)c1cccc(NC2=C(Cl)C(=O)N(Cc3ccccc3)C2=O)c1 | 10.3 | 45.4 | 11.9 | 29.8 | 2.87 | 8.65 | 12.8 | 31.5 | 12.4 | 24.8 | 2.33 | 6.79 | 1.89 | 5.28 | 13.7 | 26.6 | 2.62 | 7.85 | 13.2 | 40
5 | COc1ccc(CCN2C(=O)C=CC2=O)cc1OC |  | 5.07 |  | 35.3 |  | 36.7 |  | 33 |  | 50.2 |  | 31 |  | 19.9 |  | 35.1 |  | 36.4 |  | 3.54
6 | CN(C)c1ccc(N2Cc3ccccc3OC3=C2C(=O)c2c(O)ccc(O)c2C3=O)cn1 | 0.33 | 1.29 | 0.195 | 0.507 | 0.28 | 1 | 3.05 | 11.6 | 2.32 | 6.03 | 0.211 | 0.638 | 0.152 | 0.318 | 0.221 | 0.867 | 0.233 | 0.695 | 0.174 | 0.38
7 | COc1ccc2nc(-c3cc(-c4cc(OC)c(OC)c(OC)c4)n[nH]3)[nH]c2c1 | 1.24 | 4.81 | 0.899 | 3.31 | 1.9 | 7.11 | 2.83 | 9.17 | 1.63 | 5.25 | 1.12 | 2.52 | 2.49 | 12.3 | 1.03 | 4.1 | 2.05 | 6.18 | 1.61 | 3.24
8 | N#C/C(=C\c1ccc(-c2ccc(Cl)cc2)o1)C(=O)Nc1ncc(Cc2ccc(Cl)cc2)s1 | 0.422 | 2.01 | 2.34 | 10.4 | 2.2 | 5.99 | 3.24 | 9.52 | 1.33 | 3.05 | 2.11 | 6.57 | 2.32 | 6.85 | 1.5 | 3.67 | 1.41 | 3.14 | 2.45 | 7.39
9 | CCOc1c(Br)cc(C2C(C(=O)OC)=CN(C)C=C2C(=O)OC)cc1OC | 54.1 | > 100 | 76 | > 100 | > 100 | > 100 | > 100 | > 100 | 47.8 | > 100 | 50.2 | > 100 | 24.1 | > 100 | 30 | > 100 | 45.6 | > 100 | 99.2 | > 100
10 | CC(=O)N1N=C2/C(=C/c3ccccc3)CC(C)CC2C1c1ccccc1 (stereo not given) | 10.8 | 25.2 | 15.6 | 33.1 | 12.1 | 41.9 | 17.1 | 40.3 | 13.3 | 51.5 | 12.6 | 26 | 25.6 | > 100 | 10.7 | 40.2 | 14.9 | 32.6 | 16.5 | 45.6
11 | COc1cc(C(=O)c2ccc3c(c2)OCO3)cc(OC)c1OC | 5.14 | > 100 | 7.09 | > 100 | 1.45 | > 45.5 | 2.84 | 33.1 | 6.03 | > 100 | 2.62 | > 100 | 2.88 | 17.1 | 4.12 | > 100 | 1.4 | 3.93 | 1.37 | 6.2
12 | COC(=O)Nc1nc2ccc(Oc3ccc(NC(=O)Nc4cccc(C(=O)O)c4)cc3)cc2[nH]1 | 9.77 | > 25 | 14.8 | > 25 | 12.7 | > 25 | 5.53 | 16.3 | 10.5 | > 25 | 5.35 | > 25 | 3.37 | 10.9 | 8.44 | > 25 | 4.41 | 10.5 | 6.21 | > 16.5
